Patent US20110166152A1, “HETEROAROMATIC COMPOUNDS AS INHIBITORS OF STEAROYL-COENZYME A DELTA-9 DESATURASE” (priority 2008, published 2011)

Molecular target: T1, human SCD1 (Homo sapiens, UniProt O00767)
T1 construct: made in house; host or cells: baculovirus/Sf9 insect cells
T1 sequence (O00767 1-359): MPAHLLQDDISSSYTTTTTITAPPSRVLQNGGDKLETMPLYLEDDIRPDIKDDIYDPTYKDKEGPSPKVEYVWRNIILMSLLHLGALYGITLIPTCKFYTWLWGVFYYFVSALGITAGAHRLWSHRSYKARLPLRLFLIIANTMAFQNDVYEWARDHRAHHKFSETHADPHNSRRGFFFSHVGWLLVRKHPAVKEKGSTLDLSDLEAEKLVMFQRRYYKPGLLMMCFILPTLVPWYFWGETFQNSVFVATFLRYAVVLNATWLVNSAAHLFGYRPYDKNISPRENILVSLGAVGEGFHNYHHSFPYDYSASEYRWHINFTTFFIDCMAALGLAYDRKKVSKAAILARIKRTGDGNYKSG
Assay: SCD enzyme activity assay, reconstituted human SCD1 ([3H]-stearoyl-CoA conversion)
Type: biochemical
Details: read-out: IC50 hSCD-1
Experimental: The potency of compounds of formula I against the stearoyl-CoA desaturase was determined by measuring the conversion of radiolabeled stearoyl-CoA to oleoyl-CoA using rat liver microsome or human SCD1 following previously published procedures with some modifications (Joshi, et al., J. Lipid Res., 18: 32-36 (1977); Talamo, et al., Anal. Biochem, 29: 300-304 (1969)). Liver microsome was prepared from male Wistar or Sprague Dawley rats on a high carbohydrate diet for 3 days (LabDiet #5803, Purina). The livers were homogenized (1:10 w/v) in a buffer containing 250 mM sucrose, 1 mM EDTA, 5 mM DTT and 50 mM Tris-HCl (pH 7.5). After a 100,000×g centrifugation for 60 min, the liver microsome pellet was suspended in a buffer containing 100 mM sodium phosphate, 20% glycerol, 2 mM DTT, and stored at −78° C. Human SCD1 desaturase system was reconstituted using human SCD1 from a baculovirus/Sf9 expression system, cytochrome B5 and cytochrome B5 reductase. Typically, test compound in 2 μL DMSO was incubated for 15 min at room temperature with 180 μL of the SCD enzyme in a buffer containing 100 mM Tris-HCl (pH 7.5), ATP (5 mM), Coenzyme-A (0.1 mM), Triton X-100 (0.5 mM) and NADH (2 mM). The reaction was initiated by the addition of 20 μL of [^3H]-stearoyl-CoA (final concentration=2 μM, radioactivity concentration=1 μCi/mL). After 10 min, the reaction mixture (80 μL) was mixed with a calcium chloride/charcoal aqueous suspension (100 μL charcoal (10% w/v) plus 25 μL CaCl2 (2N). After centrifugation to precipitate the radioactive fatty acid species, tritiated water released from 9,10-[^3H]-stearoyl-CoA by the SCD enzyme was quantified on a scintillation counter.

O=C(O)c1ccc2nc(-c3cn(Cc4cc(Br)c(Br)c(Br)c4)nn3)sc2c1
IC50: 14 nM

OCc1ccn2cc(-c3cn(Cc4cc(Cl)c(Cl)c(Cl)c4)nn3)nc2c1
IC50: 39 nM

CCOC(=O)Nc1nc2ncc(-c3cn(Cc4cc(Br)c(Br)c(Br)c4)nn3)nc2s1
IC50: 16 nM

O=C(O)CNc1nc2cnc(-c3cn(Cc4cc(Cl)c(Cl)c(Cl)c4)nn3)nc2s1
IC50: 31 nM

Oc1cnc2nc(-c3cn(Cc4cc(Cl)c(Cl)c(Cl)c4)nn3)sc2n1
IC50: 48 nM
